Converted amounts (≈) assume the structure as drawn. Read-outs that look alike come from different tables or passages of the source.
Assays:
Escherichia coli = test: in vitro tube dilution test (MIC); type: cell-based
Text: (§1) Our compound, 1-(2-hydroxyethyl)-3-nitro-4-pyrazolecarboxamide, has been extensively tested in vitro to determine the range of microorganisms against which it is active. The table of data below reports the minimum inhibitory concentration (MIC) at which the compound is effective in controlling a variety of microorganisms in a standard tube dilution test system. The MIC is reported as micrograms of compound per milliliter.
(§2) Other compounds of our invention have also been tested in the tube dilution test and shown to have in vitro activity against a number of microorganisms. The table below reports tests of a number of exemplary compounds against exemplary microorganisms. The compounds are identified by their numbers in the listing above. The data are reported as the MIC in micrograms per milliliter against the named exemplary microorganisms.

Mycoplasma gallisepticum = test: in vitro tube dilution test (MIC); type: cell-based; details: Mycoplasmoides gallisepticum
Text: as §1, §2

Pasteurella multocida = test: in vitro tube dilution test (MIC); type: cell-based
Text: as §1
(§3) The other preferred compounds of our invention have also been thoroughly tested in the in vitro tube dilution test.
as §2

Salmonella dublin = test: in vitro tube dilution test (MIC); type: cell-based; details: Salmonella enterica
Text: as §3, §2

[1] = system: Staphylococcus aureus sp. 1130; test: in vitro tube dilution test (MIC); type: cell-based
Text: as §3, §2

Vibrio coli 3811 = test: in vitro tube dilution test (MIC); type: cell-based; details: Campylobacter coli
Text: as §3, §2

Streptococcus sp. 80 = test: in vitro tube dilution test (MIC); type: cell-based
Text: as §2

Salmonella typhimurium = test: Salmonellosis in chickens, single injection to day-old chicks; type: in vivo; details: for responders at 60 mg/kg: Salmonella enterica, TYPHIMURIUM, 168 h, single injection of 60 mg./kg., seven days, read-out: Survival (converted); for chicks protected of the 5-bird treated group: salmonella challenge
Protocol: A number of our 3-nitropyrazoles have been tested against an induced infection of Salmonella typhimurium in day-old chicks. The test was conducted by administering a single injection of 60 mg./kg. of the compounds to each of five chicks. The following day, the chicks were challenged by the subcutaneous injection of a dispersion of S. typhimurium organisms sufficient to kill most or all of the untreated control chicks.
Some of the compounds were tested more than once, in which instances the data are reported as the total survivors from the multiple treatment groups. Untreated, challenged control groups of chicks were tested together with each batch of groups of chicks to which test compounds were administered. Since the mortality of the untreated control chicks varied somewhat from one group of tests to another, results of the untreated control groups are reported below with each test.

[2] = Mycoplasma gallisepticum, tube dilution, read-out: MIC
[3] = Salmonella dublin, tube dilution, read-out: MIC
[4] = Staphylococcus aureus sp. 1130, tube dilution, read-out: MIC
[5] = Vibrio coli 3811, tube dilution, read-out: MIC
[6] = Streptococcus sp. 80, tube dilution, read-out: MIC

Compound | MIC (Escherichia coli; tube dilution, read-out: MIC) | MIC (Mycoplasma gallisepticum; [2]) | MIC (Pasteurella multocida; tube dilution, read-out: MIC) | MIC (Salmonella dublin; [3]) | MIC [1, 4] | MIC (Vibrio coli 3811; [5]) | MIC (Streptococcus sp. 80; [6]) | responders at 60 mg/kg (Salmonella typhimurium) | MIC (Escherichia coli) | MIC (Mycoplasma gallisepticum) | MIC (Pasteurella multocida) | MIC (Salmonella dublin) | MIC ([1]; Staphylococcus aureus, SP.1130) | MIC (Vibrio coli 3811; 3811) | MIC (Streptococcus sp. 80; Streptococcus, SP.80) | chicks protected of the 5-bird treated group (Salmonella typhimurium)
CC(=O)Cn1cc(C(N)=O)c([N+](=O)[O-])n1 [Compound 9, 1-(2-oxopropyl)-3-nitro-4-pyrazolecarboxamide] | 12.5 µg/mL (≈ 58.9 µM) | > 50 µg/mL | > 50 µg/mL | 6.25 µg/mL (≈ 29.5 µM) | 6.25 µg/mL (≈ 29.5 µM) | 6.25 µg/mL (≈ 29.5 µM) | 50 µg/mL (≈ 236 µM) | 100% |  |  |  |  |  |  |  | 
NC(=O)c1cn(Cc2ccccc2)nc1[N+](=O)[O-] [Compound 18, 1-benzyl-3-nitro-4-pyrazolecarboxamide] | 12.5 µg/mL (≈ 50.8 µM) | 6.25 µg/mL (≈ 25.4 µM) | 12.5 µg/mL (≈ 50.8 µM) | 12.5 µg/mL (≈ 50.8 µM) | 6.25 µg/mL (≈ 25.4 µM) | 50 µg/mL (≈ 203 µM) | 50 µg/mL (≈ 203 µM) | 70% |  |  |  |  |  |  |  | 
N#Cc1cn(CCCl)nc1[N+](=O)[O-] [Compound 33, 1-(2-chloroethyl)-3-nitro-4-pyrazolecarbonitrile] | 100 µg/mL (≈ 499 µM) | > 50 µg/mL |  | 100 µg/mL (≈ 499 µM) | 100 µg/mL (≈ 499 µM) | 12.5 µg/mL (≈ 62.3 µM) | 100 µg/mL (≈ 499 µM) | 80% |  |  |  |  |  |  |  | 
NC(=O)c1cn(CCCl)nc1[N+](=O)[O-] [Compound 52, 1-(2-chloroethyl)-3-nitro-4-pyrazolecarboxamide] | 3.12 µg/mL (≈ 14.3 µM) | > 50 µg/mL | 12.5 µg/mL (≈ 57.2 µM) | 3.12 µg/mL (≈ 14.3 µM) | > 1.56 µg/mL | 25 µg/mL (≈ 114 µM) | 50 µg/mL (≈ 229 µM) | 80% |  |  |  |  |  |  |  | 
N#Cc1cn(CCO)nc1[N+](=O)[O-] [Compound 55, 1-(2-hydroxyethyl)-3-nitro-4-pyrazolecarbonitrile] | 12.5 µg/mL (≈ 68.6 µM) |  |  | 6.25 µg/mL (≈ 34.3 µM) | 6.25 µg/mL (≈ 34.3 µM) |  | 50 µg/mL (≈ 275 µM) | 80% |  |  |  |  |  |  |  | 
NC(=O)c1cn(C2C=CC(n3cc(C(N)=O)c([N+](=O)[O-])n3)C=C2)nc1[N+](=O)[O-] (centres unmarked) [Compound 59, 1,1'-(2,5-cyclohexadien-1,4-ylene)-bis(3-nitro-4-pyrazolecarboxamide)] |  |  |  |  |  |  |  |  | 3.12 µg/mL (≈ 8.04 µM) | 3.12 µg/mL (≈ 8.04 µM) | 3.12 µg/mL (≈ 8.04 µM) | 3.12 µg/mL (≈ 8.04 µM) | 1.56 µg/mL (≈ 4.02 µM) | 12.5 µg/mL (≈ 32.2 µM) | > 50 µg/mL | at least three chicks of the 5-bird treated group
NC(=O)c1cn(CCCO)nc1[N+](=O)[O-] [Compound 62, 1-(3-hydroxypropyl)-3-nitro-4-pyrazolecarboxamide] | 6.25 µg/mL (≈ 29.2 µM) | 1.56 µg/mL (≈ 7.28 µM) | 6.25 µg/mL (≈ 29.2 µM) | 3.12 µg/mL (≈ 14.6 µM) | 50 µg/mL (≈ 233 µM) | 12.5 µg/mL (≈ 58.4 µM) | 50 µg/mL (≈ 233 µM) | 70% |  |  |  |  |  |  |  | 
NC(=O)c1cn(CCCCl)nc1[N+](=O)[O-] [Compound 63, 1-(3-chloropropyl)-3-nitro-4-pyrazolecarboxamide] | 50 µg/mL (≈ 215 µM) | 6.25 µg/mL (≈ 26.9 µM) | 25 µg/mL (≈ 107 µM) | 12.5 µg/mL (≈ 53.7 µM) | 50 µg/mL (≈ 215 µM) | 25 µg/mL (≈ 107 µM) | > 50 µg/mL | 40% |  |  |  |  |  |  |  | 
CC(C)n1cc(C(N)=O)c([N+](=O)[O-])n1 [Compound 64, 1-isopropyl-3-nitro-4-pyrazolecarboxamide] | 25 µg/mL (≈ 126 µM) | 50 µg/mL (≈ 252 µM) | 50 µg/mL (≈ 252 µM) | 12.5 µg/mL (≈ 63.1 µM) | 50 µg/mL (≈ 252 µM) | > 50 µg/mL | > 50 µg/mL | 60% |  |  |  |  |  |  |  | 
CS(=O)(=O)CCn1cc(C(N)=O)c([N+](=O)[O-])n1 [Compound 66, 1-[2-(methylsulfonyl)ethyl]-3-nitro-4-pyrazolecarboxamide] | 50 µg/mL (≈ 191 µM) | 50 µg/mL (≈ 191 µM) | 12.5 µg/mL (≈ 47.7 µM) | > 50 µg/mL | 25 µg/mL (≈ 95.3 µM) | > 50 µg/mL | 25 µg/mL (≈ 95.3 µM) | 40% |  |  |  |  |  |  |  | 
CC=CCn1cc(C(N)=O)c([N+](=O)[O-])n1 [Compound 75, 1-(2-butenyl)-3-nitro-4-pyrazolecarboxamide] | 50 µg/mL (≈ 238 µM) | > 50 µg/mL | 25 µg/mL (≈ 119 µM) | 25 µg/mL (≈ 119 µM) | 12.5 µg/mL (≈ 59.5 µM) | 12.5 µg/mL (≈ 59.5 µM) | > 50 µg/mL | 60% |  |  |  |  |  |  |  | 
CCOC(=O)OCCn1cc(C(N)=O)c([N+](=O)[O-])n1 [Compound 78, [2-(4-carbamoyl-3-nitropyrazol-1-yl)ethyl] ethyl carbonate] |  |  |  |  |  |  |  | 40% |  |  |  |  |  |  |  | 
CCOC(Cn1cc(C(N)=O)c([N+](=O)[O-])n1)OCC [Compound 82, 1-(2,2-diethoxyethyl)-3-nitro-4-pyrazolecarboxamide] | 50 µg/mL (≈ 184 µM) | 25 µg/mL (≈ 91.8 µM) | 50 µg/mL (≈ 184 µM) | 50 µg/mL (≈ 184 µM) | 50 µg/mL (≈ 184 µM) | 50 µg/mL (≈ 184 µM) | 50 µg/mL (≈ 184 µM) | 80% |  |  |  |  |  |  |  | 
N#Cc1cn(CCCCl)nc1[N+](=O)[O-] [Compound 83, 1-(3-chloropropyl)-3-nitro-4-pyrazolecarbonitrile] | > 50 µg/mL | 50 µg/mL (≈ 233 µM) | > 50 µg/mL | > 50 µg/mL | > 50 µg/mL | 25 µg/mL (≈ 116 µM) | > 50 µg/mL | 80% |  |  |  |  |  |  |  | 
NC(=O)c1cn(CCOC(=O)c2ccc(Cl)c(Cl)c2)nc1[N+](=O)[O-] [Compound 98, 2-(4-carbamoyl-3-nitropyrazol-1-yl)ethyl 3,4-dichlorobenzoate] |  |  |  |  |  |  |  | 100% |  |  |  |  |  |  |  | 
NC(=O)c1cn(CCOC(=O)c2cccc(Cl)c2)nc1[N+](=O)[O-] [Compound 99, 2-(4-carbamoyl-3-nitropyrazol-1-yl)ethyl m-chlorobenzoate] |  |  |  |  |  |  |  | 80% |  |  |  |  |  |  |  | 
Cn1cc(-c2nnc(N)s2)c([N+](=O)[O-])n1 [Compound 102, 2-amino-5-(1-methyl-3-nitro-4-pyrazolyl)-1,3,4-thiadiazole] | 12.5 µg/mL (≈ 55.3 µM) | 12.5 µg/mL (≈ 55.3 µM) |  | 12.5 µg/mL (≈ 55.3 µM) | 6.25 µg/mL (≈ 27.6 µM) | 12.5 µg/mL (≈ 55.3 µM) | 50 µg/mL (≈ 221 µM) |  |  |  |  |  |  |  |  | at least three chicks of the 5-bird treated group

Source: patent publication US4145554A, “3-Nitropyrazole derivatives” (Eli Lilly and Company, priority 1977, dated 1979)
